Legend:
Format in all cases: cell-based, human
[1] = tested on: DU-145 cells; assay: Cell growth of DU-145 cells (cell counting); conditions: DHMBA 10 μM, one to six days
Protocol: The PC-3 and DU-145 cells (the cell number of 1×10^5/in 1 ml of a culture fluid per hole using a 24-hole plate) were cultured in a DMEM culture fluid (containing 10% of FBS, 1% of P/S, and 1% of fungizone) containing the DHMBA (1 and 10 μM) under 5% of CO2, at 37° C., for one, two, three, four, and six days. […] After the culture, 0.1 ml of 0.05% trypsin-EDTA solution obtained by dissolving the cells adhering to the bottom surface of the culture dish in PBS (Thermo Fisher Scientific, Waltham, MA, USA) not containing Ca^2+/Mg^2+ was added, incubation was performed at 37° C. for two minutes to release the adhering cells, and 0.9 ml of the DMEM culture fluid containing 10% of FBS and 1% of P/S was added to stop the reaction. The cell number in the cell suspension was counted by the method described in the item of “Measurement of Cell Number.”
After the culture of the cells, 0.1 ml of 0.05% trypsin-EDTA solution obtained by dissolving the cells adhering to the bottom surface of the culture dish in PBS (Thermo Fisher Scientific, Waltham, MA, USA) not containing Ca^2+/Mg^2+ was added, incubation was performed at 37° C. for two minutes to release the adhering cells, and 0.9 ml of the DMEM culture fluid containing 10% of FBS and 1% of P/S was added to stop the reaction. The visible cells were counted by the Olympus MTV-3 microscope using a hemocytometer (Sigma-Aldrich).
FIG. 2(C) is a diagram in which the DU-145 cells (1×10^5 cells/per well of a 24-well plate) were cultured under 5% of CO2, at 37° C., for one to six days in a DMEM culture fluid (containing 10% of FBS, 1% of P/S, and 1% of fungizone) containing the DHMBA (10 μM).
In FIGS. 2(D) and 2(E), the DU-145 cells (1×10^5 cells/per well of a 24-well plate) were cultured under 5% of CO2, at 37° C., for three (FIG. 2D) and six (FIG. 2E) days in a DMEM culture fluid (containing 10% of FBS, 1% of P/S, and 1% of fungizone) containing the DHMBA (0.01, 0.1, 1, 10, 100, and 1000 μM). After the culture, the cells adhered to the dish were removed and counted. […] 1-way ANOVA, Tukey-Kramer post-test.

[2] = tested on: DU-145 cells; assay: Intracellular active oxygen (ROS) production, H2DCFDA, DU-145 cells; conditions: DHMBA 1, 10, 100, and 1000 μM, 24 hours
Protocol: The intracellular active oxygen (reactive oxygen species: ROS) was measured using an ROS measurement kit (MAK144-1 Kit, Sigma-Aldrich) using pro-fluorescent substrate H2DCFDA. The PC-3 and DU-145 cells (the cell number of 2.5×10^4/per well, in 0.1 ml of a culture fluid per hole using a 96-hole plate) were cultured in a DMEM culture fluid (containing 10% of FBS, 1% of P/S, and 1% of fungizone) containing the DHMBA (0.1, 1, 10, 100, or 1000 μM) under 5% of CO2, at 37° C., for 24 hours. After the culture, the cells were washed with PBS, 0.1 ml and 25 μM of an H2DCFDA solution was added, and incubation was performed for 45 minutes. Afterwards, the cells were washed with PBS, and as the amount of active oxygen produced in the cells, fluorescence intensity was measured using a fluorescence measurement plate reader at a wavelength Ex/Em=485/535 nm.
The PC-3 and DU-145 cells (2.5×10^4/0.1 ml of a culture fluid per hole using a 96-hole plate) were cultured under 5% of CO2, at 37° C., for 24 hours in a DMEM culture fluid (containing 10% of FBS, 1% of P/S, and 1% of fungizone) containing the DHMBA (0.1, 1, 10, 100, or 1000 μM). […] After the cells were washed with PBS, a fluorescence intensity of the cells was measured using a fluorescence measurement plate reader at a wavelength Ex/Em=485/535 nm. […]

[3] = tested on: DU-145 cells; assay: Cell migration scratch assay, DU-145 cells; conditions: DHMBA 1, 10, 100, or 1000 μM, 48 hours
Protocol: The migration of the prostate cancer PC-3 and DU-145 cells was examined using a scratch assay. The PC-3 and DU-145 cells (the cell number of 2×10^5/in 1 ml of a culture fluid per hole using a 24-hole plate) were cultured in a DMEM culture fluid containing 10% of FBS, 1% of P/S, and 1% of fungizone under 5% of CO2, at 37° C., for 48 hours, and a straight line scratch was performed using a pipette tip (200 μl) when the cells reached confluence. Free cells were washed with PBS to be removed, the above-described culture fluid (containing 0.1, 1, 10, 100, or 1000 μM of the DHMBA) was added, and the cells were cultured for 48 hours. After the culture, intervals of cell-free parts were measured.
The PC-3 and DU-145 cells (the cell number of 2× 10^5/1 ml of a culture fluid per hole using a 24-hole plate) were cultured under 5% of CO2, at 37° C., for 48 hours in a DMEM culture fluid containing 10% of FBS, 1% of P/S, and 1% of fungizone, and a straight line scratch was performed using a pipette tip (200 μl) when the cells reached confluence. Free cells were washed with PBS to be removed, the above-described culture fluid (containing 0.1, 1, 10, 100, or 1000 μM of the DHMBA) was added, and the cells were cultured for 48 hours. After the culture, intervals of cell-free parts were measured. […]

With `COc1c(O)cc(CO)cc1O` [DHMBA, 3,5-dihydroxy-4-methoxybenzyl alcohol] the cell growth [1] was “inhibited”, the “amount of intracellular active oxygen production” value [2] was “significant inhibition” and the migration [3] was “significantly inhibited”.
